Measurements reported in the Deep4Chem optical property database.
“And” between values parts separate entries of the source, which are not always exact repeats. Identical values can stand only once. Blank lines part the entries; values can stand above or below the molecule they belong to.

Experiment: solvent given as SMILES

absorption maximum (in ClC(Cl)Cl): 558 nm
SMILES: CCCCCCCCCCCCOc1cc2c3c(ccc4c5c(OC6CCC(C(C)(C)C)CC6)cc6c7c(ccc(c1c34)c75)C(=O)N(C1CCCCC1)C6=O)C(=O)N(C1CCCCC1)C2=O (stereo unspecified)

absorption maximum (in C1CCCCC1): 429.92 nm
absorption maximum (in C1CCOC1): 434.03 nm
absorption maximum (in CN(C)C=O): 438.98 nm
absorption maximum (in CO): 434.97 nm
absorption maximum (in ClC(Cl)Cl): 437.06 nm
absorption maximum (in c1ccccc1): 431.03 nm
SMILES: CC1(C)CCc2c(c3ccccc3c3nc4ccccc4nc23)O1

absorption maximum (in ClCCl): 430 nm
SMILES: CCCCCCCCCCCCN1C(=O)c2c(c3ccc4cc(-c5ccc(Cl)cc5)c(OC)cc4c3c3c2ccc2cc(-c4ccc(Cl)cc4)c(OC)cc23)C1=O

absorption maximum (in C1CCCCC1): 424 nm
absorption maximum (in C1CCOC1): 425 nm
absorption maximum (in CC#N): 423 nm
SMILES: Cc1ccc2nc3c(nc2c1)c(-c1ccccc1)nn3C

absorption maximum (in C1CCOC1): 585 nm
SMILES: CC1=[N+]2C(=C(c3ccccc3)c3ccc(/C=C/c4ccc(C(=C(c5ccccc5)c5ccccc5)c5ccccc5)cc4)n3[B-]2(F)F)C=C1

absorption maximum (in CC#N): 339 nm
SMILES: c1ccc(-n2c(-c3ccc(-n4c5ccccc5c5ccccc54)cc3)nc3nccnc32)cc1

absorption maximum (in CCO): 557 nm
absorption maximum (in O): 567 nm
SMILES: O=C(O)COc1cccc(OCC(=O)O)c1-c1c2ccc(=[N+]3CCCCC3)cc-2oc2cc(N3CCCCC3)ccc12

SMILES: CCCCCCCCCCCCNc1cccc2[n+]1[B-](F)(F)n1c(c3cccc4cccc1c43)=N2
absorption maximum (in C1CCOC1): 498 nm
absorption maximum (in CC#N): 493 nm
absorption maximum (in CCCCCC): 496 nm
absorption maximum (in Cc1ccccc1): 500 nm
absorption maximum (in ClCCl): 497 nm and 467 nm

SMILES: c1ccc(N(c2ccccc2)c2ccc3c(ccc4nc5ccc6cc(N(c7ccccc7)c7ccccc7)ccc6c5nc43)c2)cc1
absorption maximum (in C1CCCCC1): 471 nm
absorption maximum (in C1CCOC1): 474 nm
absorption maximum (in CN(C)C=O): 477 nm
absorption maximum (in Cc1ccccc1): 473 nm
absorption maximum (in ClCCl): 476 nm

absorption maximum (in C1CCOC1): 352 nm
SMILES: C(=C(c1ccccc1)c1ccccc1)c1ccc(C=C(c2ccccc2)c2ccccc2)cc1

absorption maximum (in CCO): 612 nm
absorption maximum (in ClCCl): 619 nm
absorption maximum (in O): 604 nm
SMILES: CC[N+](CC)=c1ccc2cc3c(oc-2c1)-c1ccc(N(C)C)cc1CC3

absorption maximum (in ClCCl): 343 nm
SMILES: c1cc2ccc3ccc(OP4(Oc5ccc6ccc7cccc8ccc5c6c78)=NP(Oc5ccc6ccc7cccc8ccc5c6c78)(Oc5ccc6ccc7cccc8ccc5c6c78)=NP(Oc5ccc6ccc7cccc8ccc5c6c78)(Oc5ccc6ccc7cccc8ccc5c6c78)=N4)c4ccc(c1)c2c34

SMILES: CCC1=C(C)C(=O)n2c1cc1c(CCC(=O)OC)c(C)c(C)n1c2=O
absorption maximum (in CC#N): 420 nm
absorption maximum (in CC(C)=O): 420 nm
absorption maximum (in CO): 426 nm
absorption maximum (in CS(C)=O): 427 nm
absorption maximum (in ClC(Cl)Cl): 429 nm
absorption maximum (in c1ccccc1): 425 nm

absorption maximum (in ClCCl): 345 nm
SMILES: N#Cc1ccc(C#Cc2ncc(-c3ccccc3)o2)cc1

absorption maximum (in CCO): 648 nm
absorption maximum (in CO): 646 nm
absorption maximum (in CS(C)=O): 656 nm
absorption maximum (in O): 641 nm
SMILES: CN1/C(=C/C=C(/C=C/c2sc3ccccc3[n+]2C)c2ccc(F)cc2)Sc2ccccc21

absorption maximum (in CC#N): 269 nm
absorption maximum (in ClCCl): 268 nm
SMILES: Nc1nc2ccc(Br)cc2s1

absorption maximum (in ClC(Cl)Cl): 500 nm
SMILES: CCCCCCCCc1ccc(-c2c3cc(-c4cc(CCCCCCCC)c(-c5ccc(-c6sc(/C=C7\SC(SCC)=NC7=O)cc6CCCCCCCC)s5)s4)sc3c(-c3ccc(CCCCCCCC)s3)c3cc(-c4cc(CCCCCCCC)c(-c5ccc(-c6sc(/C=C7\SC(SCC)=NC7=O)cc6CCCCCCCC)s5)s4)sc23)s1

absorption maximum (in ClCCl): 561 nm
SMILES: CC(C)[Si](C#Cc1c2nsnc2c(C#C[Si](C(C)C)(C(C)C)C(C)C)c2nc3c4ccccc4c(=O)c4ccccc4c3nc12)(C(C)C)C(C)C

SMILES: O=[N+]([O-])c1ccc(-n2c3ccccc3c3c2c2ccccc2n3-c2ccccc2)cc1
absorption maximum (in Cc1ccccc1): 418 nm

absorption maximum (in ClCCl): 350 nm
SMILES: CC1CCC(=CS/C=C/c2ccc(/C=C/SC=C3CCC(C)CC3)cc2)CC1 (stereo unspecified)

SMILES: Cn1c(=O)c(/N=N/c2cc(S(=O)(=O)O)ccc2C(=O)O)c(O)c2ccccc21
absorption maximum (in C1CCOC1): 408 nm
absorption maximum (in CC(C)=O): 407 nm
absorption maximum (in CCOC(C)=O): 407 nm
absorption maximum (in CO): 406 nm
absorption maximum (in CS(C)=O): 417 nm
absorption maximum (in Cc1ccccc1): 421 nm
absorption maximum (in ClCCl): 420 nm
absorption maximum (in O): 421 nm

absorption maximum (in ClCCl): 364 nm
SMILES: C(#Cc1cc(C#Cc2ccccc2)c(C#Cc2ccccc2)c(C#Cc2ccccc2)c1C#Cc1ccccc1)c1ccccc1

absorption maximum (in CC#N): 380 nm
SMILES: COc1ccc(/C=C(\C#N)c2nc(-c3ccc(OC)cc3)cs2)cc1

absorption maximum (in CO): 300 nm
SMILES: Cc1ccc(-c2nc(-c3cccc(O)c3)[nH]c2-c2ccc(C)cc2)cc1

absorption maximum (in C1CCOC1): 339 nm
SMILES: C1=Cc2ccccc2C(=Cc2ccc(-c3ccc(C=C4c5ccccc5C=Cc5ccccc54)cc3)cc2)c2ccccc21

absorption maximum (in CC#N): 424 nm
absorption maximum (in CCO): 445 nm
absorption maximum (in CO): 442 nm
absorption maximum (in ClCCl): 423 nm
absorption maximum (in O): 448 nm
SMILES: CCCC(=O)c1c2c(c(C(=O)CCC)c3c1OC(CC(=O)OC)(C(=O)O)O3)OCO2

absorption maximum (in ClC(Cl)Cl): 577 nm
SMILES: CCCCCCCCN1C(=O)c2ccc3c4c(-c5ccc6c7ccccc7n(-c7ccccc7)c6c5)cc5c6c(ccc(c7c(-c8ccc9c%10ccccc%10n(-c%10ccccc%10)c9c8)cc(c2c37)C1=O)c64)C(=O)N(CCCCCCCC)C5=O

SMILES: COc1ccccc1-c1nc2c3cccnc3c3ncccc3c2n1-c1ccccc1
absorption maximum (in Cc1ccccc1): 363 nm

SMILES: COc1ccc2ncccc2c1
absorption maximum (in CC#N): 329 nm
absorption maximum (in CCCC#N): 329 nm
absorption maximum (in Cc1ccccc1): 331 nm

absorption maximum (in CC#N): 538 nm
absorption maximum (in CCCCCC): 555 nm
absorption maximum (in CCOC(C)=O): 549 nm
absorption maximum (in CO): 544 nm
absorption maximum (in ClCCl): 552 nm
SMILES: CCCSc1ccc2n1[B-](F)(F)[N+]1=C(SC#N)C=CC1=C2c1ccccc1

absorption maximum (in O): 405 nm
SMILES: CCOC(=O)CCCCCn1c2ccccc2c(=O)c2cc(N)ccc21

absorption maximum (in C1CCCCC1): 396 nm
absorption maximum (in CO): 397 nm
absorption maximum (in CS(C)=O): 397 nm
absorption maximum (in ClC(Cl)Cl): 398 nm
absorption maximum (in c1ccccc1): 397 nm
SMILES: CCOC(=O)CCCn1c(C(=O)OC)c(C)c2c(=O)n3c(cc21)C(CC)=C(C)C3=O

SMILES: CC(C)(C)c1ccc2c(c1)sc1[n+]2[B-](F)(F)n2c(c3cccc4c(Br)ccc2c43)=C1C#N
absorption maximum (in C1CCOC1): 539 nm
absorption maximum (in CC#N): 532 nm
absorption maximum (in CCCCCC): 542 nm
absorption maximum (in Cc1ccccc1): 543 nm
absorption maximum (in ClCCl): 538 nm

SMILES: CCCN1C(=O)C(=CC=CC=C2Oc3ccccc3N2CCCS(=O)(=O)[O-])C(=O)N(CCC)C1=S
absorption maximum (in C1COCCO1): 565 nm
absorption maximum (in CC(C)=O): 559 nm
absorption maximum (in CCCCO): 562 nm
absorption maximum (in CCCO): 561 nm
absorption maximum (in CCO): 558 nm
absorption maximum (in CO): 554 nm
absorption maximum (in ClC(Cl)Cl): 568 nm
absorption maximum (in O): 530 nm

SMILES: Cc1cc(C)c(B(c2ccc(-c3ccc(-c4nc5c6ccccc6c6ccccc6c5[nH]4)cc3)cc2)c2c(C)cc(C)cc2C)c(C)c1
absorption maximum (in C1CCOC1): 375 nm
absorption maximum (in CC(C)=O): 373 nm
absorption maximum (in CS(C)=O): 378 nm
absorption maximum (in Cc1ccccc1): 374 nm
absorption maximum (in ClCCl): 371 nm

absorption maximum (in ClC(Cl)Cl): 385 nm
SMILES: CCOC(=O)C1(O)c2cc3ccc4cccc5ccc(c2C(=O)N1C(C)(C)C)c3c45 (stereo unspecified)

absorption maximum (in ClCCl): 544 nm
SMILES: CC1=C2C=CC(c3ccccc3)=[N+]2[B-](F)(F)n2c1ccc2-c1ccccc1

absorption maximum (in ClC(Cl)Cl): 455 nm
SMILES: Cc1c2c(c(C)c3ccccc13)-c1c-2ccc2nc3ccccc3nc12
